Read-outs that look alike come from different tables or passages of the source.
Key:
LXR β LBD protein = LXR β LBD protein (Homo sapiens (Human), UniProt P55055); experiment: biochemical; type: binding
[1] = target: Gal4 DNA binding domain fused to the LBD of LXRα in HEK293 cells (Homo sapiens (Human), UniProt Q13133); experiment: LXR luciferase transcriptional reporter gene assay, agonist mode, LXRα; type: cell-based; settings: for EC50: read-out: Cell LXRα EC50
[2] = target: Gal4 DNA binding domain fused to the LBD of LXRβ in HEK293 cells (Homo sapiens (Human), UniProt P55055); experiment: cell-based
Gal4 DNA binding domain fused to the LBD of LXRβ in HEK293 cells, sequence (P55055 222-460 limits assumed): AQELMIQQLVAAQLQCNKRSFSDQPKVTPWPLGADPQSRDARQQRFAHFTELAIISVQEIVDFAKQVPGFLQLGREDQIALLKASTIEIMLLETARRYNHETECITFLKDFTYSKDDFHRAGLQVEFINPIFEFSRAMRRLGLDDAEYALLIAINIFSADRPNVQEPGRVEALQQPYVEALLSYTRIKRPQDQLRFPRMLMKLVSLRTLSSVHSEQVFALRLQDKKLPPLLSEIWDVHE

[3] = agonist mode, read-out: Cell LXRβ EC50
[4] = Biological Test Example 1, read-out: LXRβ Binding Ki
[5] = Biological Test Example 2, agonist mode
[6] = Biological Test Example 2, agonist mode, read-out: Cell LXRβ EC50

Gal4 DNA binding domain fused to the LBD of LXRα in HEK293 cells, sequence (Q13133 209-447): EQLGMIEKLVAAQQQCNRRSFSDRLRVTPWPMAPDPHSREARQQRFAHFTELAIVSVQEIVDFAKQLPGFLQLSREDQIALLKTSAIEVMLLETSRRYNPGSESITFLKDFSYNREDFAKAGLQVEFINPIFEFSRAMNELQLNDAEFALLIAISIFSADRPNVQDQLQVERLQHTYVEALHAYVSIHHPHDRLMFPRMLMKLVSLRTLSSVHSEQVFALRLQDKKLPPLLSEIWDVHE
LXR β LBD protein, sequence (P55055 222-460 limits assumed): as the sequence (P55055 222-460 limits assumed) above

Row | Compound | Ki (LXR β LBD protein) | Cell LXRα efficacy [1] | EC50 [1] | Cell LXRβ efficacy [2] | EC50 [2] | Ki (LXR β LBD protein; read-out: LXRβ Binding Ki) | Cell LXRβ efficacy ([2]; agonist mode) | EC50 [2, 3] | Ki (LXR β LBD protein; [4]) | Cell LXRβ efficacy [2, 5] | EC50 [2, 6] | EC50 ([1]; agonist mode)
1 | C[C@H](c1ccc(C(F)(F)F)cc1)N1CCN(c2cccc(S(C)(=O)=O)c2)C[C@@H]1c1ccccc1 (single isomer, unassigned) [46-18] | 35 nM | 4598 (45) % | 4600 nM | 1434 (31) % | 1430 nM | – | – | – | – | – | – | –
2 | CC(F)(F)[C@H]1CC[C@@H](CN2CCN(c3cccc(S(C)(=O)=O)c3)C[C@@H]2c2ccccc2)CC1 (single isomer, unassigned) [48-28] | – | – | > 20000 nM | – | – | 1340 nM | 12% | 6480 nM | – | – | – | –
3 | CC(F)(F)[C@H]1CC[C@@H](CN2CCN(c3cccc(S(C)(=O)=O)c3)C[C@H]2c2ccccc2)CC1 (single isomer, unassigned) [48-29] | – | 6290 (43) % | 6290 nM | – | – | 378 nM | 20% | 1500 nM | – | – | – | –
4 | CS(=O)(=O)c1cccc(N2CCN(C[C@H]3CC[C@H](C(F)(F)F)CC3)[C@@H](c3ccccc3Cl)C2)c1 (single isomer, unassigned) [48-46] | – | 1908 (35) % | 1910 nM | – | – | – | – | – | 27 nM | 35% | 910 nM | –
5 | CS(=O)(=O)c1cccc(N2CCN(C[C@H]3CC[C@@]4(CC3)CC4(F)F)[C@H](c3ccccc3)C2)c1 (single isomer, unassigned) [48-70] | – | 9091 (26) % | 9090 nM | – | – | – | – | – | 750 nM | 58% | 3730 nM | –
6 | CS(=O)(=O)c1cccc(N2CCN(C[C@@H]3CC[C@@H](C(F)(F)F)OC3)[C@@H](c3ccc(F)cc3)C2)c1 (single isomer, unassigned) [49-11] | 214 nM | 2460 (42) % | 2460 nM | – | 887 nM | – | – | – | – | 887 (21) % | – | –
7 | CC(C)[C@@H]1CN(c2ccc(F)c(S(C)(=O)=O)c2)CCN1c1ncc(C#N)c(C(F)(F)F)n1 [7-21, (R)-2-(4-(4-fluoro-3-(methylsulfonyl)phenyl)-2-isopropylpiperazin-1-yl)-4-(trifluoromethyl)pyrimidine-5-carbonitrile] | – | 549 (86) % | – | – | 152 nM | 9 nM | 152 (65) % | – | – | – | – | 549 nM
8 | CCOC(=O)c1cnc(N2CCN(c3ccc(F)c(S(C)(=O)=O)c3)CC2CC(F)(F)F)nc1C (stereo not shown) [7-22, ethyl 2-(4-(4-fluoro-3-(methylsulfonyl)phenyl)-2-(2,2,2-trifluoroethyl)piperazin-1-yl)-4-methylpyrimidine-5-carboxylate] | – | 1038 (43) % | – | – | 191 nM | 17 nM | 191 (31) % | – | – | – | – | 1040 nM
9 | CCOC(=O)c1cnc(N2CCN(c3ccc(F)c(S(C)(=O)=O)c3)C[C@H]2C2CC2)nc1C(F)(F)F [9-4, ethyl (R)-2-(2-cyclopropyl-4-(4-fluoro-3-(methylsulfonyl)phenyl)piperazin-1-yl)-4-(trifluoromethyl)pyrimidine-5-carboxylate] | – | 1415 (37) % | – | – | 318 nM | 13 nM | 318 (27) % | – | – | – | – | 1410 nM
10 | COC(=O)c1cnc(N2CCN(c3ccc(F)c(S(C)(=O)=O)c3)C[C@H]2c2ccc(F)cc2)nc1C(F)(F)F [9-9, methyl (R)-2-(4-(4-fluoro-3-(methylsulfonyl)phenyl)-2-(4-fluorophenyl)piperazin-1-yl)-4-(trifluoromethyl)pyrimidine-5-carboxylate] | – | 3041 (6) % | – | – | 780 nM | 298 nM | 780 (13) % | – | – | – | – | 3040 nM
11 | Cc1nc(N2CCN(c3ccc(F)c(S(C)(=O)=O)c3)CC2CC(F)(F)F)ncc1C(C)(C)O (stereo not shown) [10-6, 2-(2-(4-(4-fluoro-3-(methylsulfonyl)phenyl)-2-(2,2,2-trifluoroethyl)piperazin-1-yl)-4-methylpyrimidin-5-yl)propan-2-ol] | – | 9158 (22) % | – | – | 1310 nM | 862 nM | – | – | – | – | – | 9160 nM
12 | CC(C)(O)c1cc(CN2CCN(c3cccc(S(C)(=O)=O)c3)C[C@@H]2c2ccccc2)ccc1C(F)(F)F [10-13, (S)-2-(5-((4-(3-(methylsulfonyl)phenyl)-2-phenylpiperazin-1-yl)methyl)-2-(trifluoromethyl)phenyl)propan-2-ol] | – | – | – | – | > 20000 nM | 226 nM | – | – | – | – | – | > 20000 nM
13 | CNS(=O)(=O)c1cc(N2CCN(c3ncc(C(C)=O)c(C(F)(F)F)n3)[C@H](C(C)C)C2)ccc1F [13-2, (R)-5-(4-(5-acetyl-4-(trifluoromethyl)pyrimidin-2-yl)-3-isopropylpiperazin-1-yl)-2-fluoro-N-methylbenzenesulfonamide] | 3 nM | 290 (73) % | 290 nM | – | 33 nM | – | 33 (58) % | – | – | – | – | –
14 | CC(=O)c1cnc(N2CCN(c3ccc(F)c(S(C)(=O)=O)c3)C[C@H]2c2ccc(F)cc2)nc1C(F)(F)F [13-3, (R)-1-(2-(4-(4-fluoro-3-(methylsulfonyl)phenyl)-2-(4-fluorophenyl)piperazin-1-yl)-4-(trifluoromethyl)pyrimidin-5-yl)ethan-1-one] | – | 2458 (21) % | 2460 nM | – | 360 nM | 88 nM | 360 (18) % | – | – | – | – | –
15 | C=C(C)c1cnc(N2CCN(c3ccc(CO)c(S(C)(=O)=O)c3)C[C@H]2C(C)C)nc1C(F)(F)F [14-2, (R)-(4-(3-isopropyl-4-(5-(prop-1-en-2-yl)-4-(trifluoromethyl)pyrimidin-2-yl)piperazin-1-yl)-2-(methylsulfonyl)phenyl)methanol] | – | 186 (63) % | – | – | 28 nM | 1 nM | 28 (42) % | – | – | – | – | 186 nM
16 | CSCc1cnc(N2CCN(c3ccc(F)c(S(C)(=O)=O)c3)C[C@H]2C(C)C)nc1C(F)(F)F [15-8, (R)-2-(4-(4-fluoro-3-(methylsulfonyl)phenyl)-2-isopropylpiperazin-1-yl)-5-((methylthio)methyl)-4-(trifluoromethyl)pyrimidine] | – | 219 (44) % | – | – | 34 nM | 1 nM | 34 (35) % | – | – | – | – | 219 nM
17 | CC(C)[C@@H]1CN(c2ccc(F)c(S(C)(=O)=O)c2)CCN1c1ncc(C(=O)N2CC(N)C2)c(C(F)(F)F)n1 [17-4, (R)-(3-aminoazetidin-1-yl)(2-(4-(4-fluoro-3-(methylsulfonyl)phenyl)-2-isopropylpiperazin-1-yl)-4-(trifluoromethyl)pyrimidin-5-yl)methanone] | – | – | – | – | 833 nM | 512 nM | 833 (6) % | – | – | – | – | > 20000 nM
18 | CC(C)[C@@H]1CN(c2ccc(F)c(S(C)(=O)=O)c2)CCN1c1ncc(C(=O)N2CC(O)C2)c(C(F)(F)F)n1 [17-5, (R)-(2-(4-(4-fluoro-3-(methylsulfonyl)phenyl)-2-isopropylpiperazin-1-yl)-4-(trifluoromethyl)pyrimidin-5-yl)(3-hydroxyazetidin-1-yl)methanone] | – | – | – | – | > 20000 nM | 396 nM | – | – | – | – | – | > 20000 nM
19 | CC(C)[C@@H]1CN(c2ccc(F)c(S(C)(=O)=O)c2)CCN1c1ncc(C(=O)NC2CN(C(=O)OC(C)(C)C)C2)c(C(F)(F)F)n1 [17-20, tert-butyl (R)-3-(2-(4-(4-fluoro-3-(methylsulfonyl)phenyl)-2-isopropylpiperazin-1-yl)-4-(trifluoromethyl)pyrimidine-5-carboxamido)azetidine-1-carboxylate] | – | – | – | – | > 20000 nM | 330 nM | – | – | – | – | – | > 20000 nM
20 | CC(C)[C@@H]1CN(c2ccc(F)c(S(C)(=O)=O)c2)CCN1c1ncc(C(=O)N2CC(NC(=O)OC(C)(C)C)C2)c(C(F)(F)F)n1 [17-21, tert-butyl (R)-(1-(2-(4-(4-fluoro-3-(methylsulfonyl)phenyl)-2-isopropylpiperazin-1-yl)-4-(trifluoromethyl)pyrimidine-5-carbonyl)azetidin-3-yl)carbamate] | – | – | – | – | > 20000 nM | 111 nM | – | – | – | – | – | > 20000 nM
21 | CON(C)C(=O)c1cnc(N2CCN(c3ccc(F)c(S(C)(=O)=O)c3)C[C@H]2c2ccc(F)cc2)nc1C(F)(F)F [17-32, (R)-2-(4-(4-fluoro-3-(methylsulfonyl)phenyl)-2-(4-fluorophenyl)piperazin-1-yl)-N-methoxy-N-methyl-4-(trifluoromethyl)pyrimidine-5-carboxamide] | 435 nM | – | – | – | > 20000 nM | – | – | – | – | – | – | > 20000 nM
22 | C[C@@H](c1ccc(C(F)(F)F)cc1)N1CCN(c2cccc(S(C)(=O)=O)c2)C[C@@H]1c1ccccc1 [46-16, (S)-4-(3-(methylsulfonyl)phenyl)-2-phenyl-1-((S)-1-(4-(trifluoromethyl)phenyl)ethyl)piperazine] | 503 nM | – | > 20000 nM | – | > 20000 nM | – | – | – | – | – | – | –
23 | COC(=O)c1cc(CN2CCN(c3cccc(S(C)(=O)=O)c3)CC2c2ccccc2)ccc1C(F)(F)F (stereo not shown) [46-36, methyl 5-((4-(3-(methylsulfonyl)phenyl)-2-phenylpiperazin-1-yl)methyl)-2-(trifluoromethyl)benzoate] | – | 11251 (20) % | – | – | 4760 nM | 244 nM | 4759 (14) % | – | – | – | – | 11300 nM
24 | Cc1nc(N2CCN(c3cccc(S(C)(=O)=O)c3)C[C@H]2C(C)C)ccc1C(F)(F)F [Cpd No 37-2, (R)-2-isopropyl-1-(6-methyl-5-(trifluoromethyl)pyridin-2-yl)-4-(3-(methylsulfonyl)phenyl)piperazine] | – | – | – | 49 (98) % | 49 nM | 2 nM | – | – | – | – | – | –
25 | CC1(C)CCC(O)(CN2CCN(c3cccc(S(C)(=O)=O)c3)C[C@@H]2c2ccccc2)CC1 [Cpd No 53-1, (S)-4,4-dimethyl-1-((4-(3-(methylsulfonyl)phenyl)-2-phenylpiperazin-1-yl)methyl)cyclohexan-1-ol] | – | – | – | – | 1030 nM | – | – | – | 121 nM | 1030 (53) % | – | –

Source: patent US10144715B2, “Piperazine derivatives as liver X receptor modulators” (priority 2014, dated 2018)
